Patent publication US20030113833A1, “Device for measuring extracellular potential, method of measuring extracellular potential by using the same and apparatus for quickly screening drug provided therewith” (priority 2001, published 2003)

Columns and labels:
Type in all cases: cell-based
[1] = system: ion channels of a Lymnaea Stagnalis neuron; test: Extracellular recording, normal distribution of standard deviations before and after application (Example 4); details: after applying 50 μM; 0.478 before the application
Excerpt: FIG. 14 is a conceptual diagram showing a configuration of an apparatus for detecting an action of a subject chemical substance on a biological sample according to the present invention. The apparatus is the same as the apparatus of FIG. 13, except that a normal distribution approximation section 103, an average/half-width calculation section 106 and an activity categorization section 109 are employed in place of the average calculation section 105 and the activity calculation section 108. Communications between each section are indicated by a dashed line or a solid line in FIG. 13. […] Note that similar to the apparatus of FIG. 13, the unit standard deviation calculation section 102, the normal distribution approximation section 103, the average/half-width calculation section 106 and the activity categorization section 109 may be representatively software programs which are recorded in a hard disk of a computer. […] Before and after 50 μM-concentration Carbachol was applied to a Lymnaea Stagnalis neuron, signals were obtained from the measurement section (signal source) 101, and the standard deviation of the signals was calculated in a manner similar to that of Example 1. […]

[2] = system: ion channels of a Lymnaea Stagnalis neuron; test: Extracellular recording, average of standard deviations of the electrical signal (Example 3); details: 0, 0.1, 0.3, 1, 3, 10, 30 and 100 μM in artificial cerebrospinal fluid; 10 seconds of data
Description: The apparatus having the configuration shown in FIG. 13 was used to measure an action of a neuron to the chemical substance Carbachol, where the neuron was prepared from Lymnaea Stagnalis. Carbachol is a chemical substance known as an analog of the neurotransmitter Acetylcholine. Carbachol (manufactured by Sigma) was dissolved in artificial cerebrospinal fluid to concentrations of 0, 0.1, 0.3, 1, 3, 10, 30 and 100 μM. The solutions having these concentrations were used to measure an electrical signal emitted by the neuron. For each Carbachol concentration, time-series data for 10 seconds was obtained from the measurement section (signal source) 101 comprising the sensor substrate, and was sampled at intervals of 100 miliseconds, and the standard deviation of the sampling data was calculated. The average of the standard deviation was plotted in FIG. 17.

[3] = system: Neurons prepared from the cerebral cortex of gestation day 17 SD rat embryos

Compound	average of the normal distribution of standard deviation values every 5 miliseconds [1]	average of the standard deviation every 100 miliseconds versus concentration [2]	frequency at which the noise has a maximal value [3]	noise intensity in the absence of the Ca antagonist relative to that in its presence [3]
C[N+](C)(C)CCOC(N)=O [Carbachol]	0.703	the greater the Carbachol concentration, the greater the average of the standard deviation every 100 miliseconds		
ω-conotoxin GVIA [Ca antagonist]			about 4 Hz	about 1.5 times
